Values quoted from earlier work in US20250241996A1, “COMBINATORIAL, AND ROTATIONAL COMBINATORIAL THERAPIES” (Starrock Pharma Inc., priority 2022, published 2025).
Where two headings read alike, the source gives them in different places.

Tests used:
[1] = Model: in vitro; cited from earlier work
[2] = oral administration; mice; cited from earlier work
[3] = intravenous; 18 obese patients; cited from earlier work
[4] = injections, 4-week study; saline 0.5±0.5 kg; cited from earlier work
[5] = cited from earlier work; for average weight reduction (efficacy estimate): placebo 2.4%; for treatment discontinuation rate due to adverse events: placebo 2.6%; for overall treatment discontinuation rate: placebo 26.4%; for people achieving at least 5% body weight reductions: placebo 28%; for Body weight change from baseline / Estimated mean weight change / Patients with weight loss of >5% / Patients with weight loss of >20%: week 72
[6] = cited from earlier work
[7] = two hours after infusion, P<0.001, cited from earlier work
[8] = cited from earlier work; remark: listed apart in the source

For `O=C1CCC(N2C(=O)c3ccccc3C2=O)C(=O)N1` (stereo not drawn) [Thalidomide], the Results [1] is listed as “decrease TNF-α from Aβ42-”.

In the case of enterostatin, the serum cholesterol [2] is listed as “reduce serum cholesterol after oral administration in mice” and the “feelings of hunger, satiety, or food preference” value [3] is listed as “did not impact feelings of hunger, satiety, or food preference”.

For “oxyntomodulin: 37-amino acid peptide hormone (SEQ ID NO:4) (HSQGTFTSDYSKYLDSRRAQDFVQWLMNTKRNRNNIA; Oxyntomodulin (OXY/OXM 53-89); listed as Homo sapiens)”, the average weight loss [4] is given as 2.3 ± 0.4 kg.

In the case of tirzepatide, the “average weight reduction (efficacy estimate)” value (“average weight reduction” for short) ([5]; 5 mg) is listed as 16.0%, the “treatment discontinuation rate due to adverse events” value (“treatment discontinuation rate due” for short) ([5]; 5 mg) is listed as 4.3% and the “overall treatment discontinuation rate” value ([5]; 5 mg) is listed as 14.3%. For the same molecule, the “people achieving at least 5% body weight reductions” value ([5]; 5 mg) was 89%, the “average weight reduction” value ([5]; 10 mg) was 21.4% and the “treatment discontinuation rate due” value ([5]; 10 mg) was 7.1%. For the same molecule, the “overall treatment discontinuation rate” value ([5]; 10 mg) was 16.4%, the “people achieving at least 5% body weight reductions” value ([5]; 10 mg) was 96% and the “average weight reduction” value ([5]; 15 mg) was 22.5%. For the same molecule, the “treatment discontinuation rate due” value ([5]; 15 mg) was 6.2%, the “overall treatment discontinuation rate” value ([5]; 15 mg) was 15.1% and the “people achieving at least 5% body weight reductions” value ([5]; 15 mg) was 96%. For the same molecule, the “body weight lost (up to)” value ([5]; 5, 10, 15 mg, 72 weeks) was at most 52 lb, the “Body weight change from baseline” value ([5]; SC 5 mg) was -16 kg and the “Estimated mean weight change” value ([5]; SC 5 mg) was −15%. The “Patients with weight loss of >5%” value ([5]; SC 5 mg) was 85%, the “Patients with weight loss of >20%” value ([5]; SC 5 mg) was 30% and the “Body weight change from baseline” value ([5]; SC 10 mg) was -22 kg. For the same molecule, the “Estimated mean weight change” value ([5]; SC 10 mg) was −19.5%, the “Patients with weight loss of >5%” value ([5]; SC 10 mg) was 89% and the “Patients with weight loss of >20%” value ([5]; SC 10 mg) was 50%. The “Body weight change from baseline” value ([5]; SC 15 mg) was -24 kg, the “Estimated mean weight change” value ([5]; SC 15 mg) was −20.9% and the “Patients with weight loss of >5%” value ([5]; SC 15 mg) was 91%. The “Patients with weight loss of >20%” value ([5]; SC 15 mg) was 57%, the “trial participants experiencing abdominal pain” value ([5]; in vivo) was 5% and the “trial participants experiencing constipation” value ([5]; in vivo) was 7%. The “trial participants experiencing diarrhea” value ([5]; in vivo) was 17%, the “trial participants experiencing nausea” value ([5]; in vivo) was 18% and the “trial participants experiencing vomiting” value ([5]; in vivo) was 9%. The “long-term blood sugar control (A1C) and weight loss compared to semaglutide” value ([6]; human, in vivo) was “significantly better long-term blood sugar control (i.e., A1C) and weight loss compared to semaglutide” and the body weight reduction ([6]; phase III, type 2 diabetes, semaglutide comparator at 1 mg) was over 15%.

B1: PYY: 36-amino acid peptide released from cells in the ileum and colon (peptide, listed as Homo sapiens)
chain: MVFVRRPWPALTTVLLALLVCLGALVDAYPIKPEAPREDASPEELNRYYASLRHYLNLVTRQRYGKRDGPDTLLSKTFFPDGEDRPVRSRSEGPDLW
modifications: Peptide tyrosine-tyrosine (PYY)
notes: 36-amino acid peptide released from cells in the ileum and colon
In the case of B1, the “decrease of caloric intake during a buffet lunch” value ([7]; lean subjects) is listed as 31% and the “decrease of caloric intake during a buffet lunch” value ([7]; obese subjects) is listed as 30%.

B2: adiponectin: 244-amino-acid-long polypeptide (SEQ ID NO:2) (protein, listed as Homo sapiens)
chain: MLLLGAVLLLLALPGHDQETTTQGPGVLLPLPKGACTGWMAGIPGHPGHNGAPGRDGRDGTPGEKGEKGDPGLIGPKGDIGETGVPGAEGPRGFPGIQGRKGEPGEGAYVYRSAFSVGLETYVTIPNMPIRFTKIFYNQQNHYDGSTGKFHCNIPGLYYFAYHITVYMKDVKVSLFKKDKAMLFTYDQYQENNVDQASGSVLLHLEVGDQVWLQVYGEGERNGLYADNDNDSTFTGFLLYHDTN
modifications: Adiponectin
In the case of B2, the half-life [8] is given as 2.5 h.
